The record followed here is ChEMBL document CHEMBL1201862, “PubChem BioAssay data set” (2004).

Molecules are shown by their SMILES. Calls of active or inactive are those of the source.

The target in test [1] is T1, RNA-binding protein pos-1 (Caenorhabditis elegans, UniProt G5EF15).
T1 sequence (G5EF15 whole entry): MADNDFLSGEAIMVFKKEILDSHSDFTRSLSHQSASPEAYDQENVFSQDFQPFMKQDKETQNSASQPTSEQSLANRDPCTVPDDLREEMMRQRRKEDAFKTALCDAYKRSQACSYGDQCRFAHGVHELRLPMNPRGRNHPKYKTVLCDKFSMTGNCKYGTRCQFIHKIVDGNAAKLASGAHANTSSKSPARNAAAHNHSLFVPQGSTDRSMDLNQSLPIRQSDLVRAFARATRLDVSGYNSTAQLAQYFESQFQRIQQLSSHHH
Put plainly: disruptors of C. elegans POS-1 RNA interaction – biochemical, fluorescence polarization, dose response (AID 1964).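 Further: purified POS-1 fused to maltose binding protein made in E. coli; potency of compounds blocking POS-1 binding to fluorescent RNA.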 In general terms: Polarisation of emitted light reports the rotation of a fluorescent probe.

Test [2] deals with T2, Zinc finger protein mex-5 (Caenorhabditis elegans, UniProt Q9XUB2).
T2 sequence (Q9XUB2 whole entry): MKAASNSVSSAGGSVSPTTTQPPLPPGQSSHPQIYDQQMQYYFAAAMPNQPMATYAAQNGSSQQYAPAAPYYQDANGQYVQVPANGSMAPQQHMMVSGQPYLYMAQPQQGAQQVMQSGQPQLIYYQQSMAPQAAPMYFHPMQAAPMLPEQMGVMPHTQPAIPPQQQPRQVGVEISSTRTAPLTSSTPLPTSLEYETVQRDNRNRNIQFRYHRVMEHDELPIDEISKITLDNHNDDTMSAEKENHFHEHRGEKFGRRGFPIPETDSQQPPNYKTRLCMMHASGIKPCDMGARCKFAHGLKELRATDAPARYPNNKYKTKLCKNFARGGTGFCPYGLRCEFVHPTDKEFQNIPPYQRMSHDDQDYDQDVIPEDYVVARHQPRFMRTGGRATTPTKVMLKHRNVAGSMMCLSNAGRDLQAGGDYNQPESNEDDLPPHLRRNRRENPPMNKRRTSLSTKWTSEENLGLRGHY
Put plainly: potency of MEX-5 RNA-binding blockers – biochemical, C. elegans, fluorescence polarization, dose response (AID 1960).

For another test, the target named is Cytochrome P450 2C9 (Homo sapiens, UniProt P11712).
In another test the target is T3, Cytochrome P450 1A2 (Homo sapiens, UniProt P05177).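 Further: PubChem cytochrome P450 panel assay, CYP1A2 panel member.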
T3 sequence (P05177 whole entry): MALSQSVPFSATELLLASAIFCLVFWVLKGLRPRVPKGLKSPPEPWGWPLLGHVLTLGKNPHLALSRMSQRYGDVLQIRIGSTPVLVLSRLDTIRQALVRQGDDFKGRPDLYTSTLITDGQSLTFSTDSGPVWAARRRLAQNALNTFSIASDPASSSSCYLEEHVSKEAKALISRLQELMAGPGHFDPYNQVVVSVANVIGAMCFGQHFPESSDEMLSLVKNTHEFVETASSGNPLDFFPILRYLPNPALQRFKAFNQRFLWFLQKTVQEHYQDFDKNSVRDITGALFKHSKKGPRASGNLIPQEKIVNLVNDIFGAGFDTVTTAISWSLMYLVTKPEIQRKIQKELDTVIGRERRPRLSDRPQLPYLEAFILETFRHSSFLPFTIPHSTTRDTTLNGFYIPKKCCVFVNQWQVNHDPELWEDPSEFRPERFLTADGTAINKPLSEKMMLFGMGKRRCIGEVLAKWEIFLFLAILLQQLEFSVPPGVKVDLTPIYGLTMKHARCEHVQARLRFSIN

The target of the next test is Cytochrome P450 2C19 (Homo sapiens, UniProt P33261). Put plainly: Cytochrome panel assay with activity outcomes. Panel member name: p450-cyp2c19 Compounds with AC50 equal or less than 10 uM are considered active. Type of test: functional. Particulars: read-out: AC50.
A further test concerns the target Cytochrome P450 2D6 (Homo sapiens, UniProt P10635).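 Further: CYP2D6 member of a cytochrome P450 panel assay.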

Cytochrome P450 2C9, sequence (P11712 whole entry): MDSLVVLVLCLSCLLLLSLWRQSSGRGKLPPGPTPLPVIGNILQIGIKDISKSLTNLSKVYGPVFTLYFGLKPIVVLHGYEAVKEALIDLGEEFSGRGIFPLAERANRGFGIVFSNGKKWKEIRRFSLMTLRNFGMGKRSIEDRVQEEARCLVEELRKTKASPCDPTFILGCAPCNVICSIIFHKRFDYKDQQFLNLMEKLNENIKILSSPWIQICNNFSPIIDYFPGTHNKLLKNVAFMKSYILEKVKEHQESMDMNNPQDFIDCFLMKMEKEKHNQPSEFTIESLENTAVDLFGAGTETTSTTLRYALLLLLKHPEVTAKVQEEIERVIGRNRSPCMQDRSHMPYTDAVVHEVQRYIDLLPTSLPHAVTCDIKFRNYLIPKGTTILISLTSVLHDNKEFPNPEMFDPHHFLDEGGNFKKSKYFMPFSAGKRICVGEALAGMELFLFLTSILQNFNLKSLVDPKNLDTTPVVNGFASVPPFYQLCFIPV
Cytochrome P450 2C19, sequence (P33261 whole entry): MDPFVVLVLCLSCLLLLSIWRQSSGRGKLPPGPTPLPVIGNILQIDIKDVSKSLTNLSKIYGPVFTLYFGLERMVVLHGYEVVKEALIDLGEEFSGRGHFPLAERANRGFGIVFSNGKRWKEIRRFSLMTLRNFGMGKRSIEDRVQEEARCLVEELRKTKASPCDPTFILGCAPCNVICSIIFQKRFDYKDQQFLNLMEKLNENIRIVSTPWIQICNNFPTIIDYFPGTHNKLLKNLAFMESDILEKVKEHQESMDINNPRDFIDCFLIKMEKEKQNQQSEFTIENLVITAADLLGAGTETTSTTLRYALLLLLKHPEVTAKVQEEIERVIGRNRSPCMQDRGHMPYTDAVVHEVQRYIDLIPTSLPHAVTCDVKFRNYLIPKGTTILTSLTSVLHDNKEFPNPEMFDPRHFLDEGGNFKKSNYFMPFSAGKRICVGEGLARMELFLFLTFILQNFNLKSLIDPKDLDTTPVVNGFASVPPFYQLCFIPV
Cytochrome P450 2D6, sequence (P10635 whole entry): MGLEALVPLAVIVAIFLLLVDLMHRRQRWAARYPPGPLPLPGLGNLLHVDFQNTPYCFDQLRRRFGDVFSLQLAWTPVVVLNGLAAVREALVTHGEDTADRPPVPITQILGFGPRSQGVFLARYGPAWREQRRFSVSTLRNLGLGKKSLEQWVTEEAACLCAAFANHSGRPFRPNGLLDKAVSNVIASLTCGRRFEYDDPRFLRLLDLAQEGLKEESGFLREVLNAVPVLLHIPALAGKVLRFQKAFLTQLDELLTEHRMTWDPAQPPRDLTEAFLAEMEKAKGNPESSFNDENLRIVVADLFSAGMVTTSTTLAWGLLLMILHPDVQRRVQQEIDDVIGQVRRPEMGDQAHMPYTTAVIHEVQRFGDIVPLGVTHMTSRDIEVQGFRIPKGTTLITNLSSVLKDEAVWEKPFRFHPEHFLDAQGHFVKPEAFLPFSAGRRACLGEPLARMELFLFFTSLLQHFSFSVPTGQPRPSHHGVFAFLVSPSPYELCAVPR

Usually EC50 stands for the concentration at which the effect is half-maximal. Consider `O=C1C(Cl)=C(Nc2ccccc2O)C(=O)N1c1ccccc1`, for which the EC50 was > 300 µM (not active) in test [1] and 73 µM (inconclusive) in test [2].
As for `O=C1NC(=O)N(c2ccc(Br)cc2)C(=O)/C1=C/NCCN1CCCCC1`, the figures for the EC50 in test [1] and in test [2] were > 300 µM (not active) and 106 µM (active), respectively.
Broadly, the AC50 is the concentration giving half of the maximal activity seen. `O=C(CCN1CCCCC1)c1csc2ccccc12`: the AC50 on Cytochrome P450 2C9 and at Cytochrome P450 1A2 was 3.16 µM (inconclusive) each time.
On to `COC(=O)N1CCC[C@@]2(CCN(c3ccccn3)C2)C1`, for which the AC50 on Cytochrome P450 2C19 is 39.8 µM (inconclusive); on Cytochrome P450 2C9, 20 µM (inconclusive).
As for `COc1ccccc1Cn1c(=S)[nH]c2cc(C(=O)N3CCN(C)CC3)ccc2c1=O`, the concentration at half-maximal activity (AC50) was 39.8 µM (inconclusive) at Cytochrome P450 2C19 and 0.112 µM (inconclusive) at Cytochrome P450 2C9.
As to `CCC(=O)Nc1cc(-c2nn(C)c(=O)c3ccccc23)ccc1N1CCCCC1`, the AC50 at Cytochrome P450 2C9 was 5.01 µM (inconclusive); on Cytochrome P450 1A2, 28.2 µM (inconclusive); at Cytochrome P450 2D6 it was 11.2 µM (inconclusive).
For the compound `COC(=O)N1CCC2(CCCN(c3ccccn3)C2)CC1`, the figures for the AC50 at Cytochrome P450 2C9, at Cytochrome P450 1A2 and at Cytochrome P450 2D6 were 31.6 µM (inconclusive), 25.1 µM (inconclusive) and 39.8 µM (inconclusive), respectively.
As for `O=S(=O)(O)c1cc(O)c2c(O)c(/N=N\c3cccc4ccccc34)c(S(=O)(=O)O)cc2c1`, the AC50 on Cytochrome P450 2C9 was 7.94 µM (inconclusive).
Turning to `COC(=O)CCC(=O)OC1(C)C(=O)C=C2C=C(c3ccsc3)OC=C2C1=O` (stereo unspecified), the EC50 in test [1] was 36.8 µM (active); in test [2] it was 26.7 µM (inconclusive).
For `COC(=O)CCCC1=CC2=CC(=O)C(C)(OC(=O)c3cccs3)C(=O)C2=CO1` (stereo unspecified), the values for the concentration for a half-maximal effect (EC50) in test [1] and in test [2] were 14 µM (active) and 16.5 µM (active), respectively.
Take `CCCn1c(=N)c(C(=O)NCC2CCCO2)cc2c(=O)n3cccc(C)c3nc21` (stereo unspecified): the EC50 in test [1] and in test [2] was > 300 µM (not active) each time.
In the case of `Cc1cc(=O)nc2c3ccccc3n(CC(=O)Nc3ccccc3Br)n12`, the figures for the EC50 in test [1] and in test [2] were > 300 µM (not active) and 103 µM (active), respectively.
Regarding `OCCOc1ccc(C2=NCCO2)cc1`, the EC50 in test [1] and in test [2] was > 300 µM (not active) in each case.
With `CCN1/C(=C2/SC(=S)N(NC(C)=O)C2=O)Sc2ccccc21`, the EC50 in test [1] was 60.7 µM (active); in test [2] it was > 300 µM (not active).
Taken in the same sequence, the figures for `Cc1nc2ccccc2c2oc(C(=O)Nc3ccc4c(c3)OCCO4)cc12` were 16.6 µM (active) and 25.9 µM (inconclusive).
Regarding `COc1ccc2c(c1)C(=O)N(c1ccccc1)C(=O)C2`, the AC50 is 22.4 µM (inconclusive) at Cytochrome P450 2C9 and 25.1 µM (inconclusive) on Cytochrome P450 1A2.
As to `CCCS(=O)(=O)N1CCCC(C(=O)NCCCN2CCN(c3cccc(Cl)c3)CC2)C1` (stereo unspecified), the AC50 on Cytochrome P450 2C19 is 14.1 µM (inconclusive); on Cytochrome P450 2C9, 28.2 µM (inconclusive); at Cytochrome P450 1A2, 0.00631 µM (inconclusive).
For the compound `COc1ccc(C2C(C(=O)N3CCOCC3)c3ccccc3C(=O)N2c2ccc(OC)cc2)cc1` (stereo unspecified), the AC50 at Cytochrome P450 2C9 was 0.501 µM (inconclusive).
For the compound `COc1cc(C2NC(S)=NC(C)=C2C(=O)OC(C)C)ccc1OC(C)C` (stereo unspecified), the EC50 in test [1] and in test [2] was > 300 µM (not active) each time.
In the case of `NC(=O)[C@@H]1CCCN1Cc1c(C(=O)N2CCc3ccccc3C2)nc2ccc(Cl)cn12`, the EC50 was 61.7 µM (active) in test [1] and 47 µM (active) in test [2].
For the compound `COc1ccc2[nH]c(SCC(=O)c3ccco3)nc2c1`, the figures for the AC50 on Cytochrome P450 2C9 and on Cytochrome P450 2D6 were 31.6 µM (inconclusive) and 17.8 µM (inconclusive), respectively.
For the compound `O=C(CSCc1c(Cl)cccc1Cl)NCc1cccnc1`, the concentration at half-maximal activity (AC50) at Cytochrome P450 2C9 was 7.94 µM (inconclusive).
With `CCc1nnc(S)n1/N=C/c1ccc2c(c1)OCO2`, the AC50 is 35.5 µM (inconclusive) at Cytochrome P450 2C9 and 22.4 µM (inconclusive) on Cytochrome P450 2D6.
